Experimental data as given in patent US20110027846A1, “CONTROL OF BACTERIA IN FERMENTATION PROCESSES” (priority 2007, published 2011).

Experiments:
bacteria = bacteria level on PCA medium after biocide contact (Comparative Example 3); format: cell-based; conditions: PCT medium, 2 hours after contact; biocide concentration 50 ppm
Excerpt: (§1) A comparison is done to show the effect of four different biocides on yeast level and bacteria level in various media and at various points relative to introduction of the biocide. SDA medium is synthetic defined agar, and PCA medium is plate count agar. Dow Antimicrobial™ 7287 is a composition containing 20 percent 2,2-dibromo-3-nitrilopropionamide (DBNPA), sold by The Dow Chemical Company.

yeast = yeast level on SDA medium after biocide contact (Comparative Example 3); format: cell-based; conditions: 2 hours after contact, biocide concentration 50 ppm
Excerpt: as §1

Diethyl Carbamate
Bacteria level (bacteria): 2.6 × 10^7 cfu/ml | Yeast level (yeast): <1.0 × 10^4 cfu/ml
